The source of these data is ChEMBL document CHEMBL4837213, “Hybrids between H2S-donors and betamethasone 17-valerate or triamcinolone acetonide inhibit mast cell degranulation and promote hyperpolarization of bronchial smooth muscle cells” (Eur J Med Chem, 2021).

Molecules are shown by their SMILES. Activity calls are given as the source filed them. The rule behind the calls is not given here.

A short description of data set [1]: Drug metabolism in human BSMC cells assessed as intracellular H2S release by measuring increase in fluorescence index at 300 uM measured every 5 mins for 60 mins by WSP-1 dye based spectrofluorometric analysis. The data set is classed as ADME, cell-based. The conditions noted are these: 1 h.
Data set [2] can be described thus: Drug metabolism in human BSMC cells assessed as intracellular H2S release by measuring increase in fluorescence index at 100 uM measured every 5 mins for 60 mins by WSP-1 dye based spectrofluorometric analysis. Type of data set: ADME, cell-based. The note with it: 1 h.
In data set [3] the test system is RBL-2H3. The data set is described as follows: (§1) Inhibition of DNP-HAS-stimulated mast cell degranulation in rat RBL-2H3 cells assessed as reduction in beta-hexosaminidase release at 300 uM incubated for 5 mins followed by DNP-HAS stimulation for 1 hr by multiplate reader analysis. The data set is classed as functional. The conditions noted are these: time 65.0 min.

A short description of data set [4]: (§2) Bronchodilatory activity in human BSMC cells assessed as induction of membrane hyperpolarization at 300 uM by spectrofluorometric analysis relative to NS1619. The data set is classed as functional.
Data set [5] relates to RBL-2H3. The data set is described as follows: (§3) Inhibition of DNP-HAS-stimulated mast cell degranulation in rat RBL-2H3 cells assessed as reduction in beta-hexosaminidase release at 100 uM incubated for 5 mins followed by DNP-HAS stimulation for 1 hr by multiplate reader analysis. Type of data set: functional. The note with it: time 65.0 min.
Data set [6] is described as follows: (§4) Bronchodilatory activity in human BSMC cells assessed as induction of membrane hyperpolarization at 100 uM by spectrofluorometric analysis relative to NS1619. The data set is classed as functional.
In data set [7] the test system is BSMC. Described as §2. The data set is classed as functional.
A short description of data set [8]: as §1. Type of data set: functional. The conditions noted are these: RBL-2H3, 1.083 h, time 65 min.
Data set [9] in a line: as §3. Type of data set: functional. The conditions noted are these: RBL-2H3, 1.083 h, time 65 min.
In data set [10] the test system is BSMC. Described as §4. Type of data set: functional.
Data set [11] in a line: Inhibition of DNP-HAS-stimulated mast cell degranulation in rat RBL-2H3 cells assessed as reduction in beta-hexosaminidase release at 1 mM incubated for 5 mins followed by DNP-HAS stimulation for 1 hr by multiplate reader analysis. Type of data set: functional. The note with it: RBL-2H3, 1.083 h, time 65 min.

For `CCCCC(=O)O[C@]1(C(=O)COC(=O)CCC(=O)Oc2ccc(-c3cc(=S)ss3)cc2)[C@@H](C)C[C@H]2[C@@H]3CCC4=CC(=O)C=C[C@]4(C)[C@@]3(F)[C@@H](O)C[C@@]21C`, the Drug metabolism result in [1] and in [2] was “Metabolite_Notdetected” in each case.

By inhibition is commonly meant the drop in the measured response relative to a control, in per cent. With `CCCCC(=O)O[C@]1(C(=O)CO)[C@@H](C)C[C@H]2[C@@H]3CCC4=CC(=O)C=C[C@]4(C)[C@@]3(F)[C@@H](O)C[C@@]21C`, in the data set on RBL-2H3 [3], the inhibition result is “inactive”.

As to `CCCCC(=O)O[C@]1(C(=O)COC(=O)CCC(=O)Oc2ccc(C(N)=S)cc2)[C@@H](C)C[C@H]2[C@@H]3CCC4=CC(=O)C=C[C@]4(C)[C@@]3(F)[C@@H](O)C[C@@]21C`, the Drug metabolism result in data set [1] and in data set [2] was “Metabolite_Detected” each time.

On to `C=CCSSCC=C` [DIALLYLDISULFIDE], for which, in data set [2], the Drug metabolism entry is “Metabolite_Detected”.

With `CC1(C)O[C@@H]2C[C@H]3[C@@H]4CCC5=CC(=O)C=C[C@]5(C)[C@@]4(F)[C@@H](O)C[C@]3(C)[C@]2(C(=O)COC(=O)CCC(=O)Oc2ccc(N=C=S)cc2)O1`, the Drug metabolism result in data set [1] and in [2] was “Metabolite_Detected” in each case. Moreover, the “fold change (FC)” value in [4] and in [6] was 4 in each case. The inhibition result in the data set on RBL-2H3 [3] and with RBL-2H3 [5] was “Active” in each case.

For `CC1(C)O[C@@H]2C[C@H]3[C@@H]4CCC5=CC(=O)C=C[C@]5(C)[C@@]4(F)[C@@H](O)C[C@]3(C)[C@]2(C(=O)CO)O1`, the inhibition entry in the data set with RBL-2H3 [3] was “inactive”.

In the case of `CC1(C)O[C@@H]2C[C@H]3[C@@H]4CCC5=CC(=O)C=C[C@]5(C)[C@@]4(F)[C@@H](O)C[C@]3(C)[C@]2(C(=O)COC(=O)CCC(=O)Oc2ccc(-c3cc(=S)ss3)cc2)O1`, the Drug metabolism result in data set [1] is listed as “Metabolite_Detected”; in [2] it was “Metabolite_Notdetected”.

For the molecule `CCCCC(=O)O[C@]1(C(=O)COC(=O)CCC(=O)Oc2ccc(N=C=S)cc2)[C@@H](C)C[C@H]2[C@@H]3CCC4=CC(=O)C=C[C@]4(C)[C@@]3(F)[C@@H](O)C[C@@]21C`, the Drug metabolism entry in [1] and in data set [2] was “Metabolite_Detected” each time. The “fold change (FC)” value in data set [4] and in [6] was 4 each time. Besides, the inhibition result in the data set with RBL-2H3 [3] and with RBL-2H3 [5] was “Active” each time.

As for `Oc1ccc(N=C=S)cc1`, the Drug metabolism entry in data set [1] and in data set [2] was “Metabolite_Detected” throughout. For the same molecule, the result in the data set with BSMC [7] and in the data set with BSMC [10] was Active. The inhibition at 300 µM in data set [8] worked out at 75%. Further, the inhibition at 100 µM in data set [9] turned out to be 75%.

Take `O=C(O)c1cc(=O)c2c(OCC(O)COc3cccc4oc(C(=O)O)cc(=O)c34)cccc2o1` [CROMOLYN]: the inhibition at 1000 µM in data set [11] was found to be 20%.

`CC1(C)O[C@@H]2C[C@H]3[C@@H]4CCC5=CC(=O)C=C[C@]5(C)[C@@]4(F)[C@@H](O)C[C@]3(C)[C@]2(C(=O)COC(=O)CCC(=O)Oc2ccc(C(N)=S)cc2)O1`: the Drug metabolism entry in [1] and in [2] was “Metabolite_Notdetected” each time.

Turning to `NC(=S)c1ccc(O)cc1`, the Drug metabolism result is “Metabolite_Detected” in [1] and “Metabolite_Notdetected” in data set [2].

As to `Oc1ccc(-c2cc(=S)ss2)cc1`, the Drug metabolism entry in [1] and in [2] was “Metabolite_Notdetected” in each case.
